Test results reported in US11448654B2, “Protein-protein interaction assessed by detecting localized coiled coil subunits” (The Regents of the University of California, priority 2017, dated 2022).

Assays:
PKA activity = test: PKA-SPARK in zebrafish embryo muscle cells; type: in vivo; conditions: 24 hrs APF, upon addition of isoprenaline
[1] = tested on: protein kinase A (PKA) activity; test: PKA-SPARK phase separation kinase reporter in HEK293 cells; type: cell-based, human; conditions: for effect of pre-incubation on isoprenaline-induced droplet formation / PKA-SPARK signal: HEK293 cells, pre-incubation before isoprenaline
From the text: To design a SPARK-based PKA, reporter (named PKA-SPARK), a consensus peptide sequence was utilized that is specifically phosphorylated by PKA, as described in Durocher et al., (2000). The molecular basis of FHA domain: phosphopeptide binding specificity and implications for phospho-dependent signaling mechanisms. Mol Cell 6, 1169-1182. To introduce PKA activity-dependent PPI, forkhead-associated domain 1 (FHA1) was sued, which is a phosphothreonine binding domain. […] These two fusion sequences were connected by a “self-cleaving” 2A sequence. The rationale was that substrate and the FHA1 would induce PKA activity-dependent protein-protein interaction, the two HOTags introduce multivalency; and upon PKA activation, multivalent protein-protein interactions would be induced, leading to phase separation and formation of EGFP droplets.
To test the construct, the β-adrenergic agonist isoprenaline was added to HEK293 cells that endogenously express β-adrenergic receptors (βAR). βAR activation induces GDP for GTP exchange in the heteratrimeric G protein Gs, and GTP-bound Gαs activates adenylyl cyclase (AC), which converts ATP into cAMP that activates PKA. […] In order to confirm that the phase separation results from phosphorylation of PKA-SPARK at the expected threonine residue, we changed the threonine to alanine in the PKA substrate sequence.
Next it was tested whether phase separation of the reporter is reversible, i.e. whether the EGFP droplets would disassemble or dissolve when PKA is inactivated. Cells were pre-incubated with isoprenaline to induce phase separation, then isoprenaline was removed and H89 added to inactivate PKA. […] As a control, the EGFP droplets were stable over time in the cells with removal of isoprenaline but addition of medium without H89. […] To examine whether PKA-SPARK could quantitatively measure the droplets' disassembly over time after PKA inhibition, we defined “SPARK signal” as the sum of fluorescent droplets' pixel intensity divided by sum of cells' pixel intensity. Upon addition of H89, the SPARK signal decreased over time. In contrast, for the control the SPARK signal remained constant over time.
Time-lapse fluorescence imaging of PKA-SPARK was performed at 10 seconds per frame. […] PKA activation upon addition of isoprenaline was confirmed by AKAR2 reporter. Small droplets of PKA-SPARK were detected as early as at 20 seconds upon addition of isoprenaline. The quick activation of PKA is consistent with rapid activation of the βAR-cAMP-PKA pathway. The small droplets grew quickly and coalesced into large and intensively fluorescent droplets, which were up to 10-fold brighter than the cellular fluorescence before PKA activation. […] Therefore, PKA-SPARK achieves up to 10-fold fluorescence increase, compared to prior art AKAR2 and PKA-KTR reporters, which have ˜10% and ˜30% fluorescence ratio change, respectively. […] The results also verified that PKA-SPARK could detect PKA activity over a wide range of reporter expression. Lastly the concentration of PKA-SPARK (2-10 μM) appeared to have no effect on kinetics of droplet assembly and disassembly.
In additional experiments, PKA was activated via the G-coupled GPCR βAR. Isoprenaline was added to activate endogenous βARs in HEK293 cells.

[2] = target: T1, interaction between CRBN and GSPT1 (Homo sapiens, UniProt P15170+Q96SW2); test: SPARK reporter CRBN-EGFP-HOTag3 / GSPT1-HOTag6 in HEK293 cells; type: cell-based; conditions: time-lapse imaging
T1 construct: expressed in transfected cells; host or cells: HEK293
T1 sequence (Q96SW2 whole entry): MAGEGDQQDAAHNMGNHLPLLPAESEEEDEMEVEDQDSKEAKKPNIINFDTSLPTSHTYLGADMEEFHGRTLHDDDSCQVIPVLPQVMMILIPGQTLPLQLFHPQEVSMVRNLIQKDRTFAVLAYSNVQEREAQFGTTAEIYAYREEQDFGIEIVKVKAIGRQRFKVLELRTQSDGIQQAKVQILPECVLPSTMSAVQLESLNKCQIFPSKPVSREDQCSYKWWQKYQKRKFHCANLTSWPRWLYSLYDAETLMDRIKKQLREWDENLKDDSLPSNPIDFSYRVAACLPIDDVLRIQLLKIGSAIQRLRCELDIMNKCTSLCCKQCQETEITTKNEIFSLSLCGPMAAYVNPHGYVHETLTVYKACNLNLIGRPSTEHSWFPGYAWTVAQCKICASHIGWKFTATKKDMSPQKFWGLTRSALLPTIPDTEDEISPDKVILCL
T1 sequence (P15170 whole entry): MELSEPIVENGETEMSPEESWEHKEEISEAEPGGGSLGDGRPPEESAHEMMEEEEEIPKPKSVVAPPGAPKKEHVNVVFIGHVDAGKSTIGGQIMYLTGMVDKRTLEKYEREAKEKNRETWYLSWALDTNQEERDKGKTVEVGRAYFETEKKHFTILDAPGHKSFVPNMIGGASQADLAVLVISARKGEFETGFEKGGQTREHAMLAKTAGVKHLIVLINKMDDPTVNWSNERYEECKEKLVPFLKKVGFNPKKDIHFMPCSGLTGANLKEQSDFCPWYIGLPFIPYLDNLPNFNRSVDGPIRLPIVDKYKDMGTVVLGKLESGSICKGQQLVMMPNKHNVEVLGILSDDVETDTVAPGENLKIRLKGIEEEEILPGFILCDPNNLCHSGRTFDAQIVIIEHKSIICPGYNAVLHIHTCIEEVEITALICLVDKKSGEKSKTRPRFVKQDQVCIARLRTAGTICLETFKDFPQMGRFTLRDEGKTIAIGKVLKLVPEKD
From the text: Many analogs and derivatives of IMiDs have recently been designed and explored as drug leads. […] To examine whether SPARK can detect CC-885 induced protein-protein interactions, HOTag6 was genetically fused to GSPT1 and co-expressed with CRBN-EGFP-HOTag3 in HEK293 cells. […] Thus, SPARK also detects CC-885 induced protein-protein interactions.

ERK activity = test: ERK-SPARK phase separation kinase reporter in HEK293 cells; conditions: for effect of pre-incubation on phase separation of ERK-SPARK upon addition of EGF: HEK293 cells, pre-incubation before EGF
From the text: To determine whether the SPARK design generalizes, the highly conserved kinase ERK was utilized in a second pair of reporter fusion proteins. To design a SPARK-based ERK reporter (ERK-SPARK), the ERK activity-sensing motifs that were used for previous FRET-based ERK reporters were employed. One of the ERK activity-sensing motifs is a phosphopeptide sequence from Cdc25C, followed by an ERK-specific docking site that determines substrate specificity. The companion fragment is a WW domain that binds the phosphorylated substrate. The ERK substrate sequence was fused to EGFP followed by HOTag3, and the WW domain was fused to EGFP followed by HOTag6. The two fusions were connected by a “self-cleaving” 2A sequence. The pair of reporter fusion proteins was expressed in HEK293 cells exposed to epidermal growth factor (EGF). EGF binds the EGF receptor, resulting in ERK activation. […] Because the ERK docking site was previously shown to be critical for ERK recognition and binding to substrate, a reporter lacking the 4-amino-acid docking site was generated.
To investigate whether ERK-SPARK could detect GPCR-induced ERK activity, a hexapeptide full agonist for protease-activated receptor-1 was added to HEK293 cells.

CC(C)NCC(O)c1ccc(O)c(O)c1 (centres unmarked) [isoprenaline]
EGFP droplet formation in muscle cells (PKA activity): EGFP droplet formation | persistence of EGFP droplets (sustained PKA activity) ([1]; endogenous βARs in HEK293 cells): at least 3 hrs | fluorescent droplet formation upon addition of βAR agonist ([1]; reporter-expressing HEK293 cells): fluorescent droplets formed | earliest detection of small PKA-SPARK droplets after addition ([1]; time-lapse imaging at 10 seconds per frame): 20 s

COc1ccccc1OCCNCC(O)COc1cccc2[nH]c3ccccc3c12 (centres unmarked) [carvedilol]
effect of pre-incubation on isoprenaline-induced droplet formation / PKA-SPARK signal [1]: abolished the sustained PKA-SPARK signals

O=S(=O)(NCCNC/C=C/c1ccc(Br)cc1)c1cccc2cnccc12 [H89]
effect of pre-incubation on isoprenaline-induced droplet formation / PKA-SPARK signal [1]: abolished isoprenaline-induced droplet formation | EGFP droplet disassembly when PKA is inactivated ([1]; cells pre-incubated with isoprenaline, isoprenaline removed, H89 added): EGFP droplets disassembled rapidly

Cc1ccc(NC(=O)NCc2ccc3c(c2)CN(C2CCC(=O)NC2=O)C3=O)cc1Cl (centres unmarked) [CC-885]
droplet formation (punctal green fluorescence) upon addition [2]: intensely bright and punctal green fluorescence

O=C(NOC[C@H](O)CO)c1ccc(F)c(F)c1Nc1ccc(I)cc1F [PD 0325901]
effect of pre-incubation on phase separation of ERK-SPARK upon addition of EGF (ERK activity): abolished phase separation

EGF: epidermal growth factor; binds the EGF receptor, resulting in ERK activation (NSDSECPLSHDGYCLHDGVCMYIEALDKYACNCVVGYIGERCQYRDLKWWELR; UniProt P01133 971-1023, looked up)
EGFP droplet formation upon addition of stimulus (ERK activity; ERK-SPARK expressing HEK293 cells): EGFP droplets formed

C[S+]([O-])c1ccc(-c2nc(-c3ccncc3)c(-c3ccc(F)cc3)[nH]2)cc1 (centres unmarked) [SB 203580]
effect of pre-incubation on phase separation of ERK-SPARK upon addition of EGF (ERK activity): did not abolish formation of EGFP droplets
